Results published in ChEMBL document CHEMBL1201862, “PubChem BioAssay data set” (2004).
Activity calls are given as the source filed them.

What was measured:
Type in all cases: functional
[1] = target: T1, Caspase-3 (Homo sapiens, UniProt P42574);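 note: Dose-response selectivity test against caspase-3 for candidate inhibitors of sentrin-specific proteases (SENPs)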
T1 sequence (P42574 whole entry): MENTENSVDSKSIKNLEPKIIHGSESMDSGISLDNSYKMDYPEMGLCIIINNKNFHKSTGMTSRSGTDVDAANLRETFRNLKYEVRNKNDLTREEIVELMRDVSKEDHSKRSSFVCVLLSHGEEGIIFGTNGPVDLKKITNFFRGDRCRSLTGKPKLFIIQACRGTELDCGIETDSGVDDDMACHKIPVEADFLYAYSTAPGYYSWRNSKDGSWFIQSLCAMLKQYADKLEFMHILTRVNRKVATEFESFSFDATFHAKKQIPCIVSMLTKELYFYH

[2] = target: T2, Sentrin-specific protease 7 (Homo sapiens, UniProt Q9BQF6);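 note: Luminescence-based dose-response confirmation of ultra-high-throughput screening hits, measuring inhibition of SENP7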
T2 sequence (Q9BQF6 whole entry): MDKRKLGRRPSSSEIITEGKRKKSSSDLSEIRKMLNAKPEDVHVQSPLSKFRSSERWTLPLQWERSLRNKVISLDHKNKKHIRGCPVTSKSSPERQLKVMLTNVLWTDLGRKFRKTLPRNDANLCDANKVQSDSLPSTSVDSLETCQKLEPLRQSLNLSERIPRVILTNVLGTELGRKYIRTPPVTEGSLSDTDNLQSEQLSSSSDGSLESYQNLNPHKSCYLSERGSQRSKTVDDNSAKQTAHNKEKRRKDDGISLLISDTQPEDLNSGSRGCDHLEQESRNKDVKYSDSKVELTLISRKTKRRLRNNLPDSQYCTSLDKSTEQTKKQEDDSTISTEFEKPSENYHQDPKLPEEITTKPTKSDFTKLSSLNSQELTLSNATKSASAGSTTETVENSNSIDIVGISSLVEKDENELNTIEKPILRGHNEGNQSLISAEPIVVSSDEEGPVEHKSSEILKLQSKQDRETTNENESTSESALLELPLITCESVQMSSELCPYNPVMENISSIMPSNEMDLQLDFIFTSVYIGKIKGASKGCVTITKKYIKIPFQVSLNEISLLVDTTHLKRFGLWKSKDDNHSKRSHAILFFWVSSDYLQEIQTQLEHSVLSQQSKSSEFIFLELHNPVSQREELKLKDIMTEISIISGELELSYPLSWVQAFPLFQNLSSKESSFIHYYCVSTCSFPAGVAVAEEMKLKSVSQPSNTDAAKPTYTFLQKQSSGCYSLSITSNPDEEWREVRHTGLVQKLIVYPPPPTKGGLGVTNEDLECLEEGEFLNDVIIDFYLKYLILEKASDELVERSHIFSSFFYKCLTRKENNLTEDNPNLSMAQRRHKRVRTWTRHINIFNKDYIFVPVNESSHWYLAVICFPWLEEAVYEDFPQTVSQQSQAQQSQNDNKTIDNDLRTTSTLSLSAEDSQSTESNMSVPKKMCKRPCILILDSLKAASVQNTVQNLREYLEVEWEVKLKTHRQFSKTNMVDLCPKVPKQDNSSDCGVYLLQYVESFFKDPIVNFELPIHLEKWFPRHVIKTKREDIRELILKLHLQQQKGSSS

[3] = target: T3, Sentrin-specific protease 6 (Homo sapiens, UniProt Q9GZR1);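 note: Luminescence-based dose-response confirmatory assay of SENP6 inhibition, following up an ultra-high-throughput screen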
T3 sequence (Q9GZR1 whole entry): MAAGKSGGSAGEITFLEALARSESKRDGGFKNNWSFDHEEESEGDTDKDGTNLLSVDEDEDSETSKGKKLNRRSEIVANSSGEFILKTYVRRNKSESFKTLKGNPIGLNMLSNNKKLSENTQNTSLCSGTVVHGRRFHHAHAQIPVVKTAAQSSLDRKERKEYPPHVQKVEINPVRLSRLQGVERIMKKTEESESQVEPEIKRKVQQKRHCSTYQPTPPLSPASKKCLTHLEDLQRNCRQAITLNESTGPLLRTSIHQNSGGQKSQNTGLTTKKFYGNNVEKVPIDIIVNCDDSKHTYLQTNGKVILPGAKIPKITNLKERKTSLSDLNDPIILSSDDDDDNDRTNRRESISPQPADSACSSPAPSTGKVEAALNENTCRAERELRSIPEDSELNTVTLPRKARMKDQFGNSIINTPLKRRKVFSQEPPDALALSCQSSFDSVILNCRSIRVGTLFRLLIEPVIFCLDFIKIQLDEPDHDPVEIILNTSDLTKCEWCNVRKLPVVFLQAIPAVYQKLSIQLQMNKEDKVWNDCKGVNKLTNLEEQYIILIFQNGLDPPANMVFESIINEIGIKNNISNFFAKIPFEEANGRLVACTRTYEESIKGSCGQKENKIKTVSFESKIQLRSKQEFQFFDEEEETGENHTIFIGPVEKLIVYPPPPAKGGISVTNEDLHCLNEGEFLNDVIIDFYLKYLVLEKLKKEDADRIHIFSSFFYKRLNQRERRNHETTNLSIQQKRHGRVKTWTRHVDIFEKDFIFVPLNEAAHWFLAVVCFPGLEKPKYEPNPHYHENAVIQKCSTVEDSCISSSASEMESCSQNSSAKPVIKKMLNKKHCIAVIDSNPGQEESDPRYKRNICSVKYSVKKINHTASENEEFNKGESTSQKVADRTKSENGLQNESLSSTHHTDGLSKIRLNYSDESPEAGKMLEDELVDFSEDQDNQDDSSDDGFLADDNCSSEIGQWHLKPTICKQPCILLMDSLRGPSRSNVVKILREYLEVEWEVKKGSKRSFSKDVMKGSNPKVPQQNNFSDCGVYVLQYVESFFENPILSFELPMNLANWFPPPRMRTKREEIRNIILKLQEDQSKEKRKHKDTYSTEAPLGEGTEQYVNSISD

[4] = target: T4, Sentrin-specific protease 8 (Homo sapiens, UniProt Q96LD8);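 note: luminescence read-out of SENP8 inhibition, dose-response confirmation following an ultra-high-throughput screen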
T4 sequence (Q96LD8 whole entry): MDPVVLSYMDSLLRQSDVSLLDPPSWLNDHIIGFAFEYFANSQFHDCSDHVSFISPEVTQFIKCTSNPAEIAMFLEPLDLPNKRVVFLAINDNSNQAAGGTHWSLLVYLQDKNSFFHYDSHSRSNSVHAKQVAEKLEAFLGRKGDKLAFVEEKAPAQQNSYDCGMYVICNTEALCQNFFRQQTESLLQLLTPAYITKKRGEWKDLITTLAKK

[5] = target: T5, Short transient receptor potential channel 4 (Mus musculus, UniProt Q9QUQ5); experiment: block of DAMGO-driven TRPC4 calcium entry – cell-based, HEK293 TRPC4/mu-opioid, Fluo-4 calcium, dose response (AID 434942);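 note: potency of inhibitors blocking the TRPC4 calcium response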
T5 sequence (Q9QUQ5 whole entry): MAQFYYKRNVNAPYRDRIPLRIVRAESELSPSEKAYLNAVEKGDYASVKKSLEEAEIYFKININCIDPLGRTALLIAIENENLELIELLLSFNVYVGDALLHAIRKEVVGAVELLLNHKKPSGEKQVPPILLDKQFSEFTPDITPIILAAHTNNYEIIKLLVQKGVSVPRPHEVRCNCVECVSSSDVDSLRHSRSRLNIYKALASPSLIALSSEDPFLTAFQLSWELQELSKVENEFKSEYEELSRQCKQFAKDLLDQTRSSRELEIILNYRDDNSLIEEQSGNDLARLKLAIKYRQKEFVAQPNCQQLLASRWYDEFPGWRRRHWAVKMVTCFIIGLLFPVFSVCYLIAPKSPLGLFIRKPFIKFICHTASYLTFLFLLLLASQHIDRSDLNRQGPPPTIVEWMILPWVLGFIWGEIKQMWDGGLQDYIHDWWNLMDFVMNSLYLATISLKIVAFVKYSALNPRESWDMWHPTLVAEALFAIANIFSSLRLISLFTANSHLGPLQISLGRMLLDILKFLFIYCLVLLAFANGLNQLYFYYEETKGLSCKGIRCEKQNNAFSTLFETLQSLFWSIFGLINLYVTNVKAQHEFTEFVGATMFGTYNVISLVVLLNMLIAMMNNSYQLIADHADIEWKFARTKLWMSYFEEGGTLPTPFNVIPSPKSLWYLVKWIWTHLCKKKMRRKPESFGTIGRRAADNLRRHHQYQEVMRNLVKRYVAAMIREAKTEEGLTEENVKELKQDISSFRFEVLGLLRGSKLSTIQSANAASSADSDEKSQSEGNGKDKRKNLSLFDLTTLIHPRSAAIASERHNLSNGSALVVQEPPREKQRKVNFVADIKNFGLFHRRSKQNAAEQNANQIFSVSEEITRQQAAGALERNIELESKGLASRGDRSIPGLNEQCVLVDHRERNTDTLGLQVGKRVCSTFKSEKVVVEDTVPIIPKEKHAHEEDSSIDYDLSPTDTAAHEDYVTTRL

[6] = target: T6, Protein skinhead-1 (Caenorhabditis elegans, UniProt P34707)
T6 sequence (P34707 whole entry): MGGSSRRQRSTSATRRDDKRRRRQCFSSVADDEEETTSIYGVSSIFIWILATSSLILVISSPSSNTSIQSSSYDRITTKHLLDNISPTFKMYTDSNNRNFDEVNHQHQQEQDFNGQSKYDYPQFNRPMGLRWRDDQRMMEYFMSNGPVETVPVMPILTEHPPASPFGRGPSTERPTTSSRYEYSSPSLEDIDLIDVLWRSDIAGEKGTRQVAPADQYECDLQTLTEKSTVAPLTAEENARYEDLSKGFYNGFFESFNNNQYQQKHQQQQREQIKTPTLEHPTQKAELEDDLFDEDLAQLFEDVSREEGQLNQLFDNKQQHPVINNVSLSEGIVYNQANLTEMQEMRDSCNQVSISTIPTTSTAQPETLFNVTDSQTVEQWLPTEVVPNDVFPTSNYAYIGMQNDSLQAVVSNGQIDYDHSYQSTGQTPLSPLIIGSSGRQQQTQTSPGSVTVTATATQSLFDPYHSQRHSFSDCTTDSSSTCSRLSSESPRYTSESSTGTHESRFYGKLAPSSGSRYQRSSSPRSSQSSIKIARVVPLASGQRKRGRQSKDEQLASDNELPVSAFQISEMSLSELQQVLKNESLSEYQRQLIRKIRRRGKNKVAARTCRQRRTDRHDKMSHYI

[7] = target: Peroxisome proliferator-activated receptor gamma/Nuclear receptor coactivator 2 (Homo sapiens, UniProt P37231);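 note: agonist potency for raising coactivator recruitment to the receptor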
Sequence of Peroxisome proliferator-activated receptor gamma/Nuclear receptor coactivator 2 (P37231 whole entry): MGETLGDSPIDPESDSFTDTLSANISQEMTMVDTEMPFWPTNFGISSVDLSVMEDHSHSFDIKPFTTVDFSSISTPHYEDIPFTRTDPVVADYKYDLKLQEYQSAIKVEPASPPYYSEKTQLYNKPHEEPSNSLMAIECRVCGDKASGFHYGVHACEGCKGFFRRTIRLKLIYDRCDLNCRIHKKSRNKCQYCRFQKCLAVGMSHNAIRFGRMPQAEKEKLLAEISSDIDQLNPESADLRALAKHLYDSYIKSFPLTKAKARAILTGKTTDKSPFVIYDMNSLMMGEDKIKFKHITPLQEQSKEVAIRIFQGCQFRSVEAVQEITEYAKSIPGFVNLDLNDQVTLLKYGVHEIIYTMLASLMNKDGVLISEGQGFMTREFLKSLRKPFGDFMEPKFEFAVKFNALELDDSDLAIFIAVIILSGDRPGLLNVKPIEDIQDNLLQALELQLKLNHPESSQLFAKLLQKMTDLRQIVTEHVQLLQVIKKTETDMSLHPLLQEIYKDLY
Sequence of Peroxisome proliferator-activated receptor gamma/Nuclear receptor coactivator 2 (Q15596 whole entry, further chain): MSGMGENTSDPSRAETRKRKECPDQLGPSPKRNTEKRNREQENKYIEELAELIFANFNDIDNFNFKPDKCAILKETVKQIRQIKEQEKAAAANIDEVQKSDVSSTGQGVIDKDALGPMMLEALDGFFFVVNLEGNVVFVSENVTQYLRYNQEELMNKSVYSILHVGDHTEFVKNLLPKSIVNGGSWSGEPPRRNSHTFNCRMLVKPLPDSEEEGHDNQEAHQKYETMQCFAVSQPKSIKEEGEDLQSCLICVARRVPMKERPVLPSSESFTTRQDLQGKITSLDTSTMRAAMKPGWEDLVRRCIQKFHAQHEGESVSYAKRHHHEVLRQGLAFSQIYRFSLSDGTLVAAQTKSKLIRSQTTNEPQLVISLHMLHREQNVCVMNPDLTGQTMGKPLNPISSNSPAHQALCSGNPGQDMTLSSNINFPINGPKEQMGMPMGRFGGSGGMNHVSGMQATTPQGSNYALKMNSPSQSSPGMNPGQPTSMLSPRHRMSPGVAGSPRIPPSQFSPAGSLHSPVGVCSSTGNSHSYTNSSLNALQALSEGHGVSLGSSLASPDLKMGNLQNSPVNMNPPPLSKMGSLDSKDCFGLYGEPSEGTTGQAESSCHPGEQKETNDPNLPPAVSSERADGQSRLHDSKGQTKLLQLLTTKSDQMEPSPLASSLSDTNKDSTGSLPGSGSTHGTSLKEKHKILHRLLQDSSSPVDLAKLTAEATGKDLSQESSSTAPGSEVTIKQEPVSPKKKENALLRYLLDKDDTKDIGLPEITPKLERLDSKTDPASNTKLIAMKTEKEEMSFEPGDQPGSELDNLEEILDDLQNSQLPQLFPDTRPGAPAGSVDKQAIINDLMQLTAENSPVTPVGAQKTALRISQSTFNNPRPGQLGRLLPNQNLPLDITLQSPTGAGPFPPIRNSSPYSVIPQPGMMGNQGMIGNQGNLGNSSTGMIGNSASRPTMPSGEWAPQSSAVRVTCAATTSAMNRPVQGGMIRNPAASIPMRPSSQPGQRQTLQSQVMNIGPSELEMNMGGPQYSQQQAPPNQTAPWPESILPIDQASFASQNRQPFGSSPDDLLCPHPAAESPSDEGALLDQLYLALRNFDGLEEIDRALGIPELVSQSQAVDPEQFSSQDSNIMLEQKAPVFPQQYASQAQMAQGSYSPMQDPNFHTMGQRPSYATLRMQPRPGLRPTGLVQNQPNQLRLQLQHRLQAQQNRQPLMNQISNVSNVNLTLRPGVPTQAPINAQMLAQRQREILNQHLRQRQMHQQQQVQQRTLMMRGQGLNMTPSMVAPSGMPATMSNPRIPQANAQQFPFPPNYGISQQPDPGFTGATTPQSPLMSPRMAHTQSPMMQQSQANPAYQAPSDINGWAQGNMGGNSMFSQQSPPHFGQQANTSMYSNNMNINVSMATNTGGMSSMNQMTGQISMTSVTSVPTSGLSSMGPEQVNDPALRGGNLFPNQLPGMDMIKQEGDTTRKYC

[8] = target: Peroxisome proliferator-activated receptor gamma/Nuclear receptor coactivator 1 (Homo sapiens, UniProt P37231);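 note: agonist potency as compounds enhance coactivator SRC-1 recruitment to PPARgamma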
[9] = target: Peroxisome proliferator-activated receptor gamma/Nuclear receptor coactivator 3 (Homo sapiens, UniProt P37231);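 note: agonist potency for raising coactivator recruitment to the receptor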
Sequence of Peroxisome proliferator-activated receptor gamma/Nuclear receptor coactivator 3 (P37231 whole entry): as the sequence (P37231 whole entry) above
Sequence of Peroxisome proliferator-activated receptor gamma/Nuclear receptor coactivator 3 (Q9Y6Q9 whole entry, further chain): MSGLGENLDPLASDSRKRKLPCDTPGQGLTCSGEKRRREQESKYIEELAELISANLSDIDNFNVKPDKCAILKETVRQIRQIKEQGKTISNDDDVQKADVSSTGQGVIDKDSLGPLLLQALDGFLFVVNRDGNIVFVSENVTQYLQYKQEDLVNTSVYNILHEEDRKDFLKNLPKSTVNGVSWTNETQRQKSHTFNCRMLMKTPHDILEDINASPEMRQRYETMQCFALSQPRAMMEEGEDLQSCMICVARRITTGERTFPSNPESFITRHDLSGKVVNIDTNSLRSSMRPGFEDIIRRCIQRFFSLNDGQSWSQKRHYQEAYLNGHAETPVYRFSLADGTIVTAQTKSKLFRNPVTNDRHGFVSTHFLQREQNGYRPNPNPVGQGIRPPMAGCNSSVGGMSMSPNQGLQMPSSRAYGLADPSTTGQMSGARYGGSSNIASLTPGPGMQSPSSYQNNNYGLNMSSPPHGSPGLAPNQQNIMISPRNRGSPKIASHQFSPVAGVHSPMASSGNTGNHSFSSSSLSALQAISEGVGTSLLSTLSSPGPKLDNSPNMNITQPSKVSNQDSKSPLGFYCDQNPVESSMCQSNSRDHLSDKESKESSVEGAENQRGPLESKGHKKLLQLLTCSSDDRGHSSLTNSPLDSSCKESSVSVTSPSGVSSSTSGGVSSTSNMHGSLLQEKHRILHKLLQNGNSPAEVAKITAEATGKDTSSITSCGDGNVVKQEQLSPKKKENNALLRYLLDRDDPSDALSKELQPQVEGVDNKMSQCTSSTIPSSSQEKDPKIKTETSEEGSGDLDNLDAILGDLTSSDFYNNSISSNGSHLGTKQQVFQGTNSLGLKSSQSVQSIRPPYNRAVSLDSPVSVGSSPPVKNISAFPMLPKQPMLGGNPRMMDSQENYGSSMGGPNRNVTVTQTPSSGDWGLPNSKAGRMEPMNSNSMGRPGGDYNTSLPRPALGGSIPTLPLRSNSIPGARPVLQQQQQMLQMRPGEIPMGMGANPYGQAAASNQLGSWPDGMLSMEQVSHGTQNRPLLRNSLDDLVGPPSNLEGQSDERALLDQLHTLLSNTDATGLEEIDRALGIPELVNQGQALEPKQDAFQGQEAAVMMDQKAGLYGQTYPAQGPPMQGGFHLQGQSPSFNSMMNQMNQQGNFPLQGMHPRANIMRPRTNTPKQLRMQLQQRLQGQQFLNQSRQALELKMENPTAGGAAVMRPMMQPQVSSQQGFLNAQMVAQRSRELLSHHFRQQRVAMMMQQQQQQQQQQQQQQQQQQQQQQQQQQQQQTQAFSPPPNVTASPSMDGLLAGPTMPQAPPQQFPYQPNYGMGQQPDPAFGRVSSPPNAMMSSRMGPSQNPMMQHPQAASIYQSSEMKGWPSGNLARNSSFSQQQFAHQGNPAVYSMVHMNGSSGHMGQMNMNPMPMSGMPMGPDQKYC

SMILES | EC50 [5] | EC50 [7] | EC50 [8] | EC50 [9] | also measured
Cc1ccc(C(=O)COC(=O)c2ccc(Cl)c(N)c2)s1 | – | – | – | – | IC50 [1]: 15 µM (active); IC50 [2]: 5.51 µM (active); IC50 [3]: 17.4 µM (active); IC50 [4]: 23.1 µM (active)
COc1ccc(C(CNC(=O)c2oc3ccc(Cl)cc3c2C)N2CCCCC2)cc1 (centres undefined) | 15 µM (active) | – | – | – | –
CCC1CCCCN1CCN1C(=O)C2C(C(=O)Nc3ccc(OC)cc3)C3C=CC2(O3)C1C(=O)NC1CCCCC1 (centres undefined) | 0.0947 µM (active) | – | – | – | IC50 [6]: > 100 µM (inactive)
Cc1ccc(C(=O)Nc2nnc(-c3cccs3)s2)cc1C | – | 9.65 µM (active) | 9.78 µM (active) | > 79.4 µM (not active) | –
COc1cccc(O)c1CN1CCCC(C(=O)c2sccc2C)C1 (centres undefined) | 3.35 µM (active) | – | – | – | –
Cc1ccc(NC(=O)CN2CCc3ccccc3C2)cc1F | 6.68 µM (active) | – | – | – | –
Cc1c(N)c(C(C)(C)C)cc(C(C)(C)C)c1[N+](=O)[O-] | 4.22 µM (active) | – | – | – | –
C=CCn1c(=O)c2ccccc2n2c(SCc3nc(N)nc(Nc4ccccc4C)n3)nnc12 | – | > 79.4 µM (not active) | > 79.4 µM (not active) | > 79.4 µM (not active) | –

Continued, in another order:

EC50 [5] | EC50 [7] | EC50 [8] | EC50 [9] | SMILES | also measured
– | > 79.4 µM (not active) | > 79.4 µM (not active) | > 79.4 µM (not active) | CCCCOc1ccc(C(=O)N/C(=C/C=C/c2ccccc2)C(=O)O)cc1 | –
2.99 µM (active) | – | – | – | OCc1ccccc1CNCc1ccccc1 | –
– | > 79.4 µM (not active) | > 79.4 µM (not active) | > 79.4 µM (not active) | Cc1ccc(NS(=O)(=O)c2ccc(OCC(=O)NCc3cccnc3)cc2)cc1 | –
5.31 µM (active) | – | – | – | C=CCc1ccccc1OCC(O)CN1CCN(c2ccccc2OC)CC1 (centres undefined) | –
